# Source: patent publication US7101878B1 (Agouron Pharmaceuticals, Inc., priority 1998, dated 2006)
# Molecular target: T1, mouse GnRH receptor (Mus musculus, UniProt Q01776)
# T1 construct: expressed in transfected cells; host or cells: 293 cells
# T1 sequence (Q01776 1-327): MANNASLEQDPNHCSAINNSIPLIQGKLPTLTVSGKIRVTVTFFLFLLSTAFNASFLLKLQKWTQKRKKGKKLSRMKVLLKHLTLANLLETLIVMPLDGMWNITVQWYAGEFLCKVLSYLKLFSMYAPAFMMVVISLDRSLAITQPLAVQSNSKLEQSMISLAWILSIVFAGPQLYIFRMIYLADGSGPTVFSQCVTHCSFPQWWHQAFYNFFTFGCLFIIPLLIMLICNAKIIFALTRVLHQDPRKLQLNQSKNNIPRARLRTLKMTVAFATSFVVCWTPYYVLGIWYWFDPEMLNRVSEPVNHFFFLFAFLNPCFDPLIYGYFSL
# Assay: Radioligand binding, 125I-GnRH-A, 293 cells expressing mouse GnRH receptors
# Conditions: 10 uM; read-out: % Inhib. @ 10 uM mGnRH
# Method in brief: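 Bound label captured on 0.1% polyethyleneimine-treated GF/C filters, washed three times with PBS, counted. IC50 derived; identical set-up for every species.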
row,Compound,inhibition at 10 µM [%]
1,Cc1cc2c(cc1Cc1ccc(C(=O)NC3(CO)CCCC3)o1)C(C)(C)CCC2(C)C [drawing 1464],98
2,C#CCN(C)C(=O)c1ccc(Cc2cc3c(cc2C)C(C)(C)CCC3(C)C)o1,83
3,Cc1cc2c(cc1Cc1ccc(C(=O)N3CC=CCC3)o1)C(C)(C)CCC2(C)C [drawing 1430],69
4,Cc1cc2c(cc1Cc1ccc(C(=O)N(CCCO)CCC(C)CCCC(C)(C)O)o1)C(C)(C)CCC2(C)C (centres unmarked),99
5,Cc1cc2c(cc1Cc1ccc(C(=O)N(CCC(c3ccccc3)c3ccccc3)Cc3ccc4c(c3)OCO4)o1)C(C)(C)CCC2(C)C,25
6,Cc1cc2c(cc1Cc1ccc(C(=O)NC(CO)C(C)(C)C)o1)C(C)(C)CCC2(C)C (centres unmarked),101
7,Cc1cc2c(cc1Cc1ccc(C(=O)N3CCc4c([nH]c5ccccc45)C3)o1)C(C)(C)CCC2(C)C,44
8,Cc1cc2c(cc1Cc1ccc(C(=O)NC(CO)CO)o1)C(C)(C)CCC2(C)C,22
9,CCC(C)CN(CCO)C(=O)c1ccc(Cc2cc3c(cc2C)C(C)(C)CCC3(C)C)o1 (centres unmarked),101
10,CCOC(CN(CCc1ccccc1)C(=O)c1ccc(Cc2cc3c(cc2C)C(C)(C)CCC3(C)C)o1)OCC [drawing 1296],66
11,CCCNC(=O)c1ccc(Cc2cc3c(cc2C)C(C)(C)CCC3(C)C)o1 [drawing 1274],93
12,Cc1cc2c(cc1Cc1ccc(C(=O)N3CCC(O)(c4ccc(Cl)cc4)CC3)o1)C(C)(C)CCC2(C)C [drawing 1423],43
13,Cc1cc2c(cc1Cc1ccc(C(=O)N(CCCN3CCN(C)CC3)Cc3ccc(Cl)c(Cl)c3)o1)C(C)(C)CCC2(C)C,104
14,Cc1cc2c(cc1Cc1ccc(C(=O)N(C)C3CCN(Cc4ccccc4)C3)o1)C(C)(C)CCC2(C)C (centres unmarked),98
15,COc1ccccc1C1CCN(C(=O)c2ccc(Cc3cc4c(cc3C)C(C)(C)CCC4(C)C)o2)CC1,63
16,C=CCN(C(=O)c1ccc(Cc2cc3c(cc2C)C(C)(C)CCC3(C)C)o1)C1CCCC1,95
17,CCCCN(CC)CCNC(=O)c1ccc(Cc2cc3c(cc2C)C(C)(C)CCC3(C)C)o1,101
18,CC[C@H](C)C(CO)NC(=O)c1ccc(Cc2cc3c(cc2C)C(C)(C)CCC3(C)C)o1 (some centres unmarked) [drawing 1581],77

# Now from value to compound:
row,inhibition at 10 µM [%],Compound
1,91,Cc1cc2c(cc1Cc1ccc(C(=O)N(CCN3CCOCC3)Cc3ccccc3)o1)C(C)(C)CCC2(C)C [drawing 1461]
2,72,Cc1cc2c(cc1Cc1ccc(C(=O)N3CCC4(CC3)C(=O)NCN4c3ccccc3)o1)C(C)(C)CCC2(C)C [drawing 1511]
3,99,Cc1cc2c(cc1Cc1ccc(C(=O)N(CCN3CCCC3)Cc3cccc(Oc4cccc(C(F)(F)F)c4)c3)o1)C(C)(C)CCC2(C)C
4,57,Cc1cc2c(cc1Cc1ccc(C(=O)NCCc3ccc(Oc4ccccc4)cc3)o1)C(C)(C)CCC2(C)C [drawing 1529]
5,96,Cc1cc2c(cc1Cc1ccc(C(=O)N3CCC(N4CCCC4)CC3)o1)C(C)(C)CCC2(C)C [drawing 1458]
6,98,Cc1cc2c(cc1Cc1ccc(C(=O)NCC(C)(C)CN(C)C)o1)C(C)(C)CCC2(C)C [drawing 1507]
7,64,Cc1cc2c(cc1Cc1ccc(C(=O)NC3CCC(C)CC3)o1)C(C)(C)CCC2(C)C (centres unmarked)
8,106,Cc1cc2c(cc1Cc1ccc(C(=O)NCCCCCCN(C)C)o1)C(C)(C)CCC2(C)C [drawing 1519]
9,94,Cc1cc2c(cc1Cc1ccc(C(=O)N(Cc3ccco3)C3CCN(Cc4ccccc4)C3)o1)C(C)(C)CCC2(C)C (centres unmarked) [drawing 1559]

# Same assay, conditions: 1 h, substrate remaining; 10 uM compound; closer to zero = closer to 100% inhibition; read-out: S%R 10 uM mGnRHR
row,Compound,remaining activity at 10 µM [%]
1,Cc1cc2c(cc1Cc1ccc(C(=O)N(Cc3ccc(C(C)C)cc3)Cc3cccnc3)o1)C(C)(C)CCC2(C)C [Compound 547],24
2,Cc1cc2c(cc1Cc1ccc(C(=O)N3C[C@H]4CCCC[C@H]4CC3C(=O)NC(C)(C)C)o1)C(C)(C)CCC2(C)C (some centres unmarked) [Compound 591],48
3,Cc1cc2c(cc1Cc1ccc(C(=O)N3CCC(C)CC3)o1)C(C)(C)CCC2(C)C [Compound 605],19
4,Cc1cc2c(cc1Cc1ccc(C(=O)NCCC(C)O)o1)C(C)(C)CCC2(C)C (centres unmarked) [Compound 671],12
5,Cc1cc2c(cc1Cc1ccc(C(=O)N(Cc3ccccc3)Cc3ccc(Cl)c(Cl)c3)o1)C(C)(C)CCC2(C)C [Compound 696],21
6,Cc1cc2c(cc1Cc1ccc(C(=O)N3CCN(C4CCCCC4)CC3)o1)C(C)(C)CCC2(C)C [Compound 701],-1
7,Cc1cc2c(cc1Cc1ccc(C(=O)NCCN3CCCCC3)o1)C(C)(C)CCC2(C)C [Compound 488],-3
8,Cc1cc2c(cc1Cc1ccc(C(=O)NC3CCCCC3Nc3ccnc(NCC4CCCO4)n3)o1)C(C)(C)CCC2(C)C (centres unmarked) [Compound 481],5
9,COC(CN(C)C(=O)c1ccc(Cc2cc3c(cc2C)C(C)(C)CCC3(C)C)o1)OC [Compound 611],11
10,Cc1cc2c(cc1Cc1ccc(C(=O)NCCN3CCOCC3)o1)C(C)(C)CCC2(C)C [Compound 523],-4
11,Cc1cc2c(cc1Cc1ccc(C(=O)N(CC#N)Cc3ccccc3)o1)C(C)(C)CCC2(C)C [Compound 559],26
12,COc1cc2c(cc1OC)CN(C(=O)c1ccc(Cc3cc4c(cc3C)C(C)(C)CCC4(C)C)o1)CC2 [Compound 693],55

# The next lines start with the values.
row,remaining activity at 10 µM [%],Compound
1,41,Cc1cc2c(cc1Cc1ccc(C(=O)NC3CCC3)o1)C(C)(C)CCC2(C)C [Compound 572]
2,-2,Cc1cc2c(cc1Cc1ccc(C(=O)NC[C@@H]3CCCO3)o1)C(C)(C)CCC2(C)C [Compound 582]
3,24,Cc1cc2c(cc1Cc1ccc(C(=O)NC(CO)CC3CCCCC3)o1)C(C)(C)CCC2(C)C (centres unmarked) [Compound 558]
4,9,Cc1cc2c(cc1Cc1ccc(C(=O)NCC3CCN(c4nccc(NCC5CCCO5)n4)CC3)o1)C(C)(C)CCC2(C)C (centres unmarked) [Compound 491]
5,-4,CCN1CC(N(CCC(C)CCCC(C)(C)O)C(=O)c2ccc(Cc3cc4c(cc3C)C(C)(C)CCC4(C)C)o2)CN1CC (centres unmarked) [Compound 660]
6,-4,Cc1cc2c(cc1Cc1ccc(C(=O)NCCc3cccs3)o1)C(C)(C)CCC2(C)C [Compound 471]
7,52,Cc1cc2c(cc1Cc1ccc(C(=O)N3CCC(Cc4ccccc4)CC3)o1)C(C)(C)CCC2(C)C [Compound 585]
8,4,Cc1cc2c(cc1Cc1ccc(C(=O)NC3CCCCC3O)o1)C(C)(C)CCC2(C)C (centres unmarked) [Compound 650]
9,-3,Cc1cc2c(cc1Cc1ccc(C(=O)NCCCN3CCN(C)CC3)o1)C(C)(C)CCC2(C)C [Compound 475]

# Same assay, conditions: read-out: mGnRH IC50
row,IC50 [nM],Compound
1,38,COc1cc(NC(=O)c2ccc(Cc3cc4c(cc3C)C(C)(C)CCC4(C)C)o2)cc(OC)c1OC [Compound 301]
2,3.1,COc1cc(OC)c(NC(=O)c2ccc(Cc3cc4c(cc3C)C(C)(C)CC4(C)C)o2)c(OC)c1 [Compound 300]

# Molecular target: T2, human GnRH receptor (Homo sapiens, UniProt P30968)
# T2 construct: expressed in transfected cells; host or cells: HEK 293 (hGnRH-R/293, from Dr. Stuart Sealfon)
# T2 sequence (P30968 1-328): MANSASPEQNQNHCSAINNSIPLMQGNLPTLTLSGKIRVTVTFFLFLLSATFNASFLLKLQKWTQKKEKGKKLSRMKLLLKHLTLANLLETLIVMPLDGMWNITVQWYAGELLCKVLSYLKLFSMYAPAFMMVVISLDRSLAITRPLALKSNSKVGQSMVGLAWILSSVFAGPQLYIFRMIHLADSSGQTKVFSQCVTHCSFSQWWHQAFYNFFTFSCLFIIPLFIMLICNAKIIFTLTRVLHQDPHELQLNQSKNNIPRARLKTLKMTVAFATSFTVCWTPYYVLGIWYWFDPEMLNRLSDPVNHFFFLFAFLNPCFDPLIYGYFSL
# Assay: Radioligand binding, 125I-GnRH-A displacement, membranes of HEK 293 cells with human GnRH receptor
# Conditions: read-out: hGnRH IC50
# Method in brief: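 After filtration and PBS washes, bound radioactivity was counted by scintillation and IC50 derived. Identical conditions applied for non-human receptors.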
row,IC50 [nM],Compound
1,45,COc1cc(NC(=O)c2ccc(Cc3cc4c(cc3C)C(C)(C)CCC4(C)C)o2)cc(OC)c1OC [Compound 301]
2,3.2,COc1cc(OC)c(NC(=O)c2ccc(Cc3cc4c(cc3C)C(C)(C)CC4(C)C)o2)c(OC)c1 [Compound 300]

# Test system: not listed separately
# Assay: Pharmacokinetic studies / bioavailability in rats
# Type: in vivo, rat
# Conditions: female, rat, plasma, po, 10 mg/kg, rat female; p.o. 10 mg/kg; 5 mg/ml solution in 10% DMSO 10% cremophor 80% saline
Cmax [nM],Tmax [h],Compound
360,1,COc1cc(OC)c(NC(=O)c2ccc(Cc3cc4c(cc3C)C(C)(C)CC4(C)C)o2)c(OC)c1 [Compound 300]

# Same assay, conditions: female, rat, plasma, rat female
row,half-life [h],Compound
1,2.1,COc1cc(OC)c(NC(=O)c2ccc(Cc3cc4c(cc3C)C(C)(C)CC4(C)C)o2)c(OC)c1 [Compound 300]

# Same assay, conditions: rat female; 5 mg/ml solution in 10% DMSO 10% cremophor 80% saline
row,Fp.o.,Compound
1,10% (10 mg/kg)^10,COc1cc(OC)c(NC(=O)c2ccc(Cc3cc4c(cc3C)C(C)(C)CC4(C)C)o2)c(OC)c1 [Compound 300]
